Here are results for five compounds from PMC11990898, “Novel Isatin–Chalcone Hybrid Molecules: Design, Synthesis and Anti-Neuroinflammatory Activity Evaluation” (Molecules, 2025).

As a reminder, the IC50 is the concentration at which inhibition is half-maximal. As a reminder, the inhibition is the drop in the measured response relative to a control, in per cent. As a reminder, the viability is a read-out of living cells in per cent, often relative to untreated cells.

Common to all, as to type: cell-based, mouse
The test system of series [1] is NO release from LPS-stimulated BV2 cells. Put plainly: NO release inhibition in LPS-stimulated BV2 cells (Griess method). To be noted: for Nitrite (NO release amount): BV2 cells induced by LPS, Griess test; for Nitrite (NO release amount) / inhibition at 20 µM: compound at 20 μM; for IC50 / inhibition at 20 µM: Mus musculus, BV-2, LPS-stimulated BV2 cells; for IC50: 24 h; for inhibition at 20 µM: read-out: NO inhibition rate. As to the method:
BV2 cells stimulated by lipopolysaccharide (LPS) lead to an increase in NO release. Therefore, we used the inhibitory ability of the target compounds on NO as a preliminary method to evaluate their anti-neuroinflammatory properties. We evaluated the inhibitory ability of isatin–chalcone hybrid derivatives 4a–t on the release of NO from BV2 cells at 20 μM. The release amount of NO was detected by the Griess method, and the actual release amount of NO was calculated based on the experimental data.
BV2 cells were plated in 96-well microplates at 40,000 cells per well (100 μL/well) and incubated for 24 h. Then, 50 μL of LPS solution with a final concentration of 100 ng/mL and 50 μL of compounds (diluted with medium to a final concentration of 0.31–20 μM) were added, and each concentration had 3 parallel wells. The NO assay kit was used to carry out nitrite assays after 24 h. The 50 μL of culture medium was mixed with the GrisR1 (50 μL) and GrisR2 (50 μL) of the NO assay kit in another new 96-well plate. The absorbance was detected at 540 nm. The percentage of inhibition of NO was obtained from the following formula: [(Rlps − RB − RC)/(Rlps − RB)] × 100, where Rlps is the release amount of only the LPS-treated group, RB is the release amount of the normal control and RC is the release amount of the test compound and LPS-treated group. The IC50 values of test compounds were calculated by linear regression plots.
(Nitrite, measured by Griess reagent, commonly stands in for NO production.)

Series [2] is described as follows: Cell viability assay (MTS) on BV2 cells. To be noted: mouse, BV2 microglial cells, MTS; for viability at 24 h, 3.1 µM: compound at 3.1 μM; for viability at 24 h, 3.1 µM / viability at 24 h, 6.3 μM: read-out: cell viability (cell survival rate); for viability at 24 h, 6.3 μM: compound at 6.3 μM (printed 6.23 μM for 4b); for viability at 24 h, 12.5 µM: compound at 12.5 μM; for viability at 24 h, 25 µM: compound at 25 μM. On the procedure: (§1) BV2 microglial cells (SCSP-5208, Cell Bank, Chinese Academy of Sciences, Shanghai, China) were incubated in high-glucose DMEM supplemented with 10% fetal bovine serum and 1% penicillin and streptomycin in a humidified atmosphere of 5% CO2 at 37 °C.
(§2) BV2 cells were plated in 96-well microplates at 20,000 cells per well (100 μL/well) and incubated for 24 h. Then, 100 μL of compounds (diluted with medium to a final concentration of 1.56–100 μM) was added, and each concentration had 3 parallel wells. After 24 h, the cell viability was measured by MTS assay. The absorbance was detected at 490 nm. The percentage of viability was obtained from the following formula: ODdrug-treated/ODnormal cells × 100. The IC50 values of test compounds were calculated by linear regression plots.

A further series concerns BV2 microglial cells. Briefly: Cell viability assay (MTS) on BV2 cells. To be noted: for IC50: Mus musculus, BV-2, MTS, 24 h; for cytotoxicity: under the concentration of 12.5 μM. As to the method: as §1, §2
The next series has as its system TNF-α. Briefly: ELISA of TNF-α released by LPS-stimulated BV2 cells. Conditions: for effect on production of TNF-α: result in words. As to the method:
(§3) BV2 cells were plated in 96-well microplates at 40,000 cells per well (100 μL/well) and incubated for 24 h. Then, 50 μL of LPS solution with a final concentration of 100 ng/mL and 50 μL of compounds (diluted with medium to a final concentration of 0.75–40 μM) were added, and each concentration had 3 parallel wells. The supernatant was collected after 24 h. Then, according to the manufacturer’s instructions, the ELISA assay kit was used to measure the concentrations of IL-6 and TNF-α. The absorbance was detected at 450 nm.

For another series, the system named is IL-6. Put plainly: ELISA of IL-6 released by LPS-stimulated BV2 cells. To be noted: for effect on production of IL-6: result in words. On the procedure:
as §3

Consider `CCCCCc1ccc(C(=O)/C=C2/C(=O)N(CC(=O)OCC)c3ccccc32)cc1` [Compound 4g, Ethyl (E)-2-(2-oxo-3-(2-oxo-2-(4-pentylphenyl)ethylidene)indolin-1-yl)acetate], for which, in series [1], the “Nitrite (NO release amount)” value is 8.5 ± 0.1 µM, half-maximal inhibition (IC50) was put at 10.8 µM and the inhibition at 20 µM stood at 73%. In series [2], the viability at 24 h, 3.1 µM was determined as 98.4%; the viability at 24 h, 6.3 μM amounted to 95.1%; the viability at 24 h, 12.5 µM came out at 83.9%; the viability at 24 h, 25 µM was found to be 42%. Further, in the series with BV2 microglial cells, the IC50 came out at 30.1 µM and the cytotoxicity result is reported as “did not show obvious cytotoxicity”.

On to `COc1cc(C(=O)/C=C2/C(=O)N(CC(=O)OCCCc3ccccc3)c3ccccc32)cc(OC)c1OC` [Compound 5g, 3-Phenylpropyl (E)-2-(2-oxo-3-(2-oxo-2-(3,4,5-trimethoxyphenyl)ethylidene)indolin-1-yl)acetate], for which the 50% inhibitory concentration (IC50) in series [1] was 6 µM; in the series with BV2 microglial cells, 48.5 µM. The “effect on production of TNF-α” value in the series with TNF-α is listed as “relatively weaker inhibitory effects”. Also, in the series on IL-6, the “effect on production of IL-6” value was “relatively weaker inhibitory effects”.

In the case of `CCOC(=O)CN1C(=O)/C(=C/C(=O)c2cc(OC)c(OC)c(OC)c2)c2ccccc21` [Compound 4j, Ethyl (E)-2-(2-oxo-3-(2-oxo-2-(3,4,5-trimethoxyphenyl)ethylidene)indolin-1-yl)acetate], in series [1], the “Nitrite (NO release amount)” value worked out at 8.6 ± 0.1 µM, inhibition was half-maximal at 15.7 µM (IC50) and the inhibition at 20 µM came out at 71%. Moreover, the IC50 with BV2 microglial cells is 71.8 µM. The “effect on production of TNF-α” value with TNF-α is “relatively weaker inhibitory effects”. Besides, the “effect on production of IL-6” value with IL-6 is listed as “relatively weaker inhibitory effects”.

`CCOC(=O)CN1C(=O)/C(=C/C(=O)c2cc(OC)c(OC)c(OC)c2)c2cc(C)ccc21` [Compound 9e, Ethyl (E)-2-(5-methyl-2-oxo-3-(2-oxo-2-(3,4,5-trimethoxyphenyl)ethylidene)indolin-1-yl)acetate]: in series [1], half-maximal inhibition (IC50) was put at 10.3 µM and the inhibition at 20 µM came to 72%. The compound further came in with an IC50 in the series with BV2 microglial cells of 80.6 µM. Moreover, in the series on TNF-α, the “effect on production of TNF-α” value is listed as “relatively weaker inhibitory effects”. Further, the “effect on production of IL-6” value in the series on IL-6 was “relatively weaker inhibitory effects”.

Regarding `CCOC(=O)CN1C(=O)/C(=C/C(=O)/C=C/c2ccccc2)c2ccccc21` [Compound 4b, Ethyl 2-((E)-2-oxo-3-((E)-2-oxo-4-phenylbut-3-en-1-ylidene)indolin-1-yl)acetate], in series [1], the “Nitrite (NO release amount)” value amounted to 0.69 ± 0.01 µM, the half-maximal inhibitory concentration (IC50) was found to be 1.6 µM and the inhibition at 20 µM came out at 98%. Besides, in series [2], the viability at 24 h, 3.1 µM turned out to be 98.3%; the viability at 24 h, 6.3 μM was 89.9%; the viability at 24 h, 12.5 µM turned out to be 79.5%; the viability at 24 h, 25 µM was found to be 48%. For the same compound, in the series with BV2 microglial cells, inhibition was half-maximal at 34.6 µM (IC50) and the cytotoxicity entry was “did not show obvious cytotoxicity”. Also, in the series with TNF-α (compound at 1.5 μM, p < 0.0001), the “reduction of TNF-α levels” value was determined as 37%. In addition, the “effect on production of TNF-α” value in the series with TNF-α is “decreased significantly”. Moreover, in the series on IL-6 (compound at 1.5 μM, p < 0.0001), the “reduction of IL-6 levels” value is listed as 47%. Moreover, the “effect on production of IL-6” value in the series on IL-6 is recorded as “decreased significantly”.
